Experimental data from US20230027864A1, “COMPOSITIONS AND METHODS FOR DELIVERY OF AGENTS TO IMMUNE CELLS” (ModernaTX, Inc., priority 2018, published 2023).

Key:
[1] = system: T cells; assay: Additional LNPs: T cell transfection in vitro, mOX40L mRNA, labeled LNPs; assay type: cell-based, human; conditions: for immune cell delivery potentiating ability in T cells, other ionizable lipids: third series, against Compound I-18 formulations, FIG. 47; for immune cell delivery potentiating ability in T cells, sterol panel: structural component, FIG. 44; for immune cell delivery potentiating ability in T cells, amino lipid panel: ionizable lipid component, FIG. 43; for immune cell delivery potentiating ability in T cells, helper lipid panel: phospholipid component, FIG. 45
Description: In this Example, additional LNPs comprising various lipid components and at different ratios were made and tested for their ability to transfect T cells in vitro. Transfection was performed as in Example 5 using LNPs encapsulating an mRNA encoding mouse OX40L. LNPs were labeled and the results were determined for the mean % cells with LNPs associated, the mean % cells expressing mOX40L and the % of LNP-associated cells expressing mOX40L, as described hereinbefore.

[2] = system: T cells; assay: LNP association and GFP mRNA expression in T cells of human PBMCs; assay type: cell-based; conditions: for immune cell delivery potentiating ability in T cells, amino lipid panel: ionizable lipid component of the LNP, FIG. 30
Description: In a second series of experiments, additional compounds, were tested in the LNPs for their ability to enhance delivery to T cells. For these experiments, the association of the LNP with cells and the expression of mRNA-encoding protein within the transfected cells was assessed at the cell-by-cell level. Peripheral blood mononuclear cells (PBMCs) from human donors were used. PBMCs were predominately T cells (40-60%), B cells (3-15%), and monocytes (15-35%), but also contained small numbers of other cell types. LNPs were incubated with serum or PBS for 30 minutes and then added to the PBMCs. The LNP concentration was 0.050 mg/ml, the LNP volume was 0.1 ml.
LNPs contained 0.1% Rhodamine-DOPE in addition to the other LNP components to facilitate detection. Thus, the ratios set forth in the tables below include 0.1 for the rhodamine label. For example, 50:10:10:27.9:2:0.1 AL:DSPC:chol:sterol:Cmp 428 indicates 50% amino lipid as the ionizable lipid, 10% DSPC as the phospholipid, 10% cholesterol, 27.9% phytosterol, 2% Compound 428 as the PEG lipid and 0.1% for the rhodamine-DOPE label. To prepare a non-labeled LNP, the same ratios are used except that the 0.1% rhodamine label is omitted and an additional 0.1% of structural lipid (cholesterol or cholesterol/phytosterol blend) is used (e.g., 27.9% becomes 28%).
Cells were sorted by flow cytometry into subsets based on expression of certain markers: CD3 (T cells), CD20 (B cells), and CD3-, CD20-, CD14+(Monocytes).
mRNA encoding GFP was used as a model agent to effect expression of an intracellular protein.
When conducting flow cytometry, the Y-axis was signal from the rhodamine tag on the LNP and the X-axis was the GFP signal showing expression of the protein.
The “associated” population is any rhodamine+ and/or GFP+ cell and the percent of these cells was calculated by dividing by the total number of cells. The “expression” population is any GFP+ cell and the percent of these cells was calculated by dividing by the total number of cells. The percent of associated cells expressing was obtained by dividing the % expressing cells by the % associated cells.

Structure (SMILES) | immune cell delivery potentiating ability in T cells, sterol panel [1] | immune cell delivery potentiating ability in T cells, amino lipid panel [1] | also measured
CCCCCCCCCCC(O)CN(CCCCC1NC(=O)C(CCCCN(CC(O)CCCCCCCCCC)CC(O)CCCCCCCCCC)NC1=O)CC(O)CCCCCCCCCC (stereo not drawn) [CKK-E12, reference compound] | – | – | immune cell delivery potentiating ability in T cells, other ionizable lipids [1]: exhibited immune cell delivery potentiating ability in T cells
CC(C)[C@H](C)CC[C@@H](C)[C@H]1CC[C@H]2[C@@H]3CC[C@H]4C[C@@H](O)CC[C@]4(C)[C@H]3CC[C@]12C [Compound 5-159] | exhibited immune cell delivery potentiating ability in T cells | – | –
CCC(/C=C/[C@@H](C)[C@H]1CC[C@H]2[C@@H]3CC=C4C[C@@H](O)CC[C@]4(C)[C@H]3CC[C@]12C)CC [Compound 5-160] | exhibited immune cell delivery potentiating ability in T cells | – | –
CCC(/C=C/[C@@H](C)[C@H]1CC[C@H]2[C@@H]3CC=C4C[C@@H](O)CC[C@]4(C)[C@H]3CC[C@]12C)(CC)CC [Compound 5-166] | exhibited immune cell delivery potentiating ability in T cells | – | –
CC(C)C(/C=C/[C@@H](C)[C@H]1CC[C@H]2[C@@H]3CC=C4C[C@@H](O)CC[C@]4(C)[C@H]3CC[C@]12C)C(C)C [Compound 5-167] | exhibited immune cell delivery potentiating ability in T cells | – | –
CC(C)C(CC[C@@H](C)[C@H]1CC[C@H]2[C@@H]3CC[C@H]4C[C@@H](O)CC[C@]4(C)[C@H]3CC[C@]12C)C(C)C [Compound 5-173] | exhibited immune cell delivery potentiating ability in T cells | – | –
CCCCCCCCC(C)OC(=O)CCCCCCCN(CCO)CCCCCCCC(=O)OC(CCCCCCCC)CCCCCCCC (stereo not drawn) [Compound I-48] | – | exhibited immune cell delivery potentiating ability in T cells | immune cell delivery potentiating ability in T cells, amino lipid panel [2]: exhibited immune cell delivery potentiating ability in T cells
CCCCCCCCC(CCC)OC(=O)CCCCCCCN(CCO)CCCCCCCC(=O)OC(CCCCCCCC)CCCCCCCC (stereo not drawn) [Compound I-50] | – | – | immune cell delivery potentiating ability in T cells, amino lipid panel [2]: exhibited immune cell delivery potentiating ability in T cells
CCCCCCCCCOC(=O)CCCCCCCN(CCCCCCCC(=O)OC(CCCCCCCC)CCCCCCCC)CCCNc1c(NCC)c(=O)c1=O [Compound I-292] | – | exhibited immune cell delivery potentiating ability in T cells | immune cell delivery potentiating ability in T cells, amino lipid panel [2]: exhibited immune cell delivery potentiating ability in T cells
CCCCCCCCCC(=O)OCCCCCCCN(CCCCCCCC(=O)OC(CCCCCCCC)CCCCCCCC)CCCNc1c(NC)c(=O)c1=O [Compound I-309] | – | exhibited immune cell delivery potentiating ability in T cells | –
CCCCCCCCCCCOC(=O)CCCCCN(CCCCCCCC(=O)OC(CCCCCCCC)CCCCCCCC)CCCNc1c(NC)c(=O)c1=O [Compound I-317] | – | exhibited immune cell delivery potentiating ability in T cells | –
CCCCCCCCC(CCC)OC(=O)CCCCCCCN(CCCO)CCCCCCCC(=O)OC(CCCCCCCC)CCCCCCCC (stereo not drawn) [Compound I-328] | – | – | immune cell delivery potentiating ability in T cells, amino lipid panel [2]: exhibited immune cell delivery potentiating ability in T cells
CCCCCCCCC(CCC)OC(=O)CCCCCCCN(CCCCCCCC(=O)OC(CCCCCCCC)CCCCCCCC)CCCNS(C)(=O)=O (stereo not drawn) [Compound I-330] | – | – | immune cell delivery potentiating ability in T cells, amino lipid panel [2]: exhibited immune cell delivery potentiating ability in T cells
CCCCCCCCC(C)OC(=O)CCCCCCCN(CCCCCCCC(=O)OC(CCCCCCCC)CCCCCCCC)CCCNc1c(NC)c(=O)c1=O (stereo not drawn) [Compound I-347] | – | exhibited immune cell delivery potentiating ability in T cells | –
CCCCCCCCC(CCC)OC(=O)CCCCCCCN(CCCCCCCC(=O)OC(CCCCCCCC)CCCCCCCC)CCCNc1c(NC)c(=O)c1=O (stereo not drawn) [Compound I-348] | – | exhibited immune cell delivery potentiating ability in T cells | –
CCCCCCCCC(C)OC(=O)CCCCCN(CCCCCCCC(=O)OC(CCCCCCCC)CCCCCCCC)CCCNc1c(NC)c(=O)c1=O (stereo not drawn) [Compound I-349] | – | exhibited immune cell delivery potentiating ability in T cells | –
CCCCCCCCC(CC)OC(=O)CCCCCN(CCCCCCCC(=O)OC(CCCCCCCC)CCCCCCCC)CCCNc1c(NC)c(=O)c1=O (stereo not drawn) [Compound I-350] | – | exhibited immune cell delivery potentiating ability in T cells | –
CCCCCCCCCOC(=O)CCCCCCCN(CCCCCCCC(=O)OC(CCCCCCCC)CCCCCCCC)CCCCNc1c(NC)c(=O)c1=O [Compound I-351] | – | exhibited immune cell delivery potentiating ability in T cells | –
CCCCCCCCC(CC)OC(=O)CCCCCCCN(CCCCCCCC(=O)OC(CCCCCCCC)CCCCCCCC)CCCCNc1c(NC)c(=O)c1=O (stereo not drawn) [Compound I-352] | – | exhibited immune cell delivery potentiating ability in T cells | –
CC[C@H](/C=C/[C@@H](C)[C@H]1CC[C@H]2[C@@H]3CC=C4C[C@@H](O)CC[C@]4(C)[C@H]3CC[C@]12C)C(C)C [Compound S-140] | exhibited immune cell delivery potentiating ability in T cells | – | –
CC(C)[C@H](C)CC[C@@H](C)[C@H]1CC[C@H]2[C@@H]3CC=C4C[C@@H](O)CC[C@]4(C)[C@H]3CC[C@]12C [Compound S-143, campesterol] | exhibited immune cell delivery potentiating ability in T cells | – | –
CC[C@H](CC[C@@H](C)[C@H]1CC[C@H]2[C@@H]3CC[C@H]4C[C@@H](O)CC[C@]4(C)[C@H]3CC[C@]12C)C(C)C [Compound S-144, β-sitostanol] | exhibited immune cell delivery potentiating ability in T cells | – | –
CC(C)[C@@H](C)/C=C/[C@@H](C)[C@H]1CC[C@H]2[C@@H]3CC=C4C[C@@H](O)CC[C@]4(C)[C@H]3CC[C@]12C [Compound S-148, brassicasterol] | exhibited immune cell delivery potentiating ability in T cells | – | –
CC(C)[C@@H](C)CC[C@@H](C)[C@H]1CC[C@H]2[C@@H]3CC[C@H]4C[C@@H](O)CC[C@]4(C)[C@H]3CC[C@]12C [Compound S-151] | exhibited immune cell delivery potentiating ability in T cells | – | –
CCCCCCCCCCCCCC(=O)OC[C@H](COP(=O)([O-])OCC[N+](C)(C)C)OC(=O)CCCCCCCCCCCCC [DMPC, 1,2-dimyristoyl-sn-glycero-phosphocholine, reference compound] | – | – | immune cell delivery potentiating ability in T cells, helper lipid panel [1]: exhibited immune cell delivery potentiating ability in T cells
CCCCCCCCCCCCCCCC(=O)OC[C@H](COP(=O)([O-])OCC[N+](C)(C)C)OC(=O)CCCCCCCCCCCCCCC [DPPC, 1,2-dipalmitoyl-sn-glycero-3-phosphocholine, reference compound] | – | – | immune cell delivery potentiating ability in T cells, helper lipid panel [1]: exhibited immune cell delivery potentiating ability in T cells
CCCCCCCCCCCCCCCCCC(=O)OC[C@H](COP(=O)([O-])OCC[N+](C)(C)C)OC(=O)CCCCCCCCCCCCCCCCC [DSPC, 1,2-distearoyl-sn-glycero-3-phosphocholine, reference compound] | – | – | immune cell delivery potentiating ability in T cells, helper lipid panel ([2]; phospholipid component of the LNP, FIG. 32): exhibited immune cell delivery potentiating ability in T cells
CCCCCC=CCC=CCCCCCCCCC(CCCCCCCCC=CCC=CCCCCC)OC(=O)CCCN(C)C (stereo not drawn) [MC3, heptatriaconta-6,9,28,31-tetraen-19-yl 4-(dimethylamino)butanoate, reference compound] | – | – | immune cell delivery potentiating ability in T cells, other ionizable lipids [1]: exhibited immune cell delivery potentiating ability in T cells
